One block for each compound: values may come before it.
Experiments:
[1] = Antileukemic activity against human M9-ENL1 cells assessed as increase in apoptotic cell level after 24 hrs by Annexin V/propidium iodide/7-AAD based FACS analysis; format: functional; conditions: M9-ENL1, 24 h
[2] = Cmax in BALB/c mouse at 200 mg/kg, po by LC/MS/MS analysis; format: ADME, organism-based; parameters: dose 200 mg/kg, route oral; conditions: in vivo
[3] = Oral bioavailability in BALB/c mouse at 200 mg/kg by LC/MS/MS analysis; format: ADME, organism-based; conditions: in vivo
[4] = AUC in BALB/c mouse at 200 mg/kg, po by LC/MS/MS analysis; format: ADME, organism-based; conditions: in vivo
[5] = Apparent elimination half life in BALB/c mouse at 200 mg/kg, po by LC/MS/MS analysis; format: ADME, organism-based; conditions: in vivo
[6] = Tmax in BALB/c mouse at 200 mg/kg, po by LC/MS/MS analysis; format: ADME, organism-based; conditions: in vivo
[7] = Total clearance in BALB/c mouse at 20 mg/kg, iv or 200 mg/kg, po by LC/MS/MS analysis; format: ADME, organism-based; conditions: in vivo
[8] = Drug uptake in BALB/c mouse blood at 200 mg/kg, po after 15 mins by LC/MS/MS analysis; format: ADME, organism-based; conditions: in vivo, 0.25 h
[9] = Potency index, ration of parthenolide EC50 to compound EC50 for human M9-ENL1 cells; format: functional
[10] = Oral bioavailability in BALB/c mouse at 271.2 mg/kg by LC/MS/MS analysis; format: ADME, organism-based; conditions: in vivo
[11] = Tmax in BALB/c mouse at 271.2 mg/kg, po by LC/MS/MS analysis; format: ADME, organism-based; conditions: in vivo
[12] = Drug uptake in BALB/c mouse blood at 271.2 mg/kg, po after 15 mins by LC/MS/MS analysis; format: ADME, organism-based; conditions: in vivo, 0.25 h
[13] = Total clearance in BALB/c mouse at 27.1 mg/kg, iv or 271.2 mg/kg, po by LC/MS/MS analysis; format: ADME, organism-based; conditions: in vivo
[14] = Apparent elimination half life in BALB/c mouse at 271.2 mg/kg, po by LC/MS/MS analysis; format: ADME, organism-based; conditions: in vivo
[15] = Cmax in BALB/c mouse at 271.2 mg/kg, po by LC/MS/MS analysis; format: ADME, organism-based; parameters: dose 271.2 mg/kg, route oral; conditions: in vivo
[16] = Drug uptake in BALB/c mouse Plasma at 271.2 mg/kg, po after 15 mins by LC/MS/MS analysis; format: ADME, organism-based; conditions: in vivo, 0.25 h

Compound: C=C1C(=O)O[C@@H]2[C@H]3O[C@]3(C)CC/C=C(\C)CC[C@@H]12
EC50 [1]: 7000 nM

Compound: C=C1C(=O)O[C@H]2[C@H]1CC/C(COC(=O)Nc1nc3ccccc3[nH]1)=C\CC[C@@]1(C)O[C@@H]21
EC50 [1]: 1600 nM

Compound: C=C1C(=O)O[C@H]2[C@H]1CC/C(COC(=O)NCc1nc3ccccc3[nH]1)=C\CC[C@@]1(C)O[C@@H]21
EC50 [1]: 3900 nM

Further lines, with some results ahead:

EC50 [1]: 2100 nM
Compound: C=C1C(=O)O[C@H]2[C@H]1CC/C(COC(=O)n1ccnc1C)=C\CC[C@@]1(C)O[C@@H]21

Cmax [2]: 4.5 µM
F [3]: 6.7%
AUC [4]: 868.3 µmol·min/L
betat1/2(app) [5]: 61.8 min
Tmax [6]: 2 h
EC50 [1]: 15500 nM
clearance [7]: 70 mL/min/kg
Drug uptake [8]: Active
Compound: C=C1C(=O)O[C@H]2[C@H]1CC/C(CO)=C\CC[C@@]1(C)O[C@@H]21

EC50 [1]: 1400 nM
Compound: C=C1C(=O)O[C@H]2[C@H]1CC/C(COC(=O)n1cc(C)nc1CC)=C\CC[C@@]1(C)O[C@@H]21

F [10]: 45.5%
Tmax [11]: 0.502 h
Drug uptake [12]: Active
AUC [4]: 2137.5 µmol·min/L
clearance [13]: 200 mL/min/kg
EC50 [1]: 900 nM
betat1/2(app) [14]: 92.3 min
Cmax [15]: 10.6 µM
Drug uptake [16]: Active
Compound: C=C1C(=O)O[C@H]2[C@H]1CC/C(COC(=O)n1ccnc1)=C\CC[C@@]1(C)O[C@@H]21
Ratio EC50 [9]: 8
